Here are results for 19 compounds from patent publication US10633379B2, “Bromodomain inhibitors” (AbbVie Inc., priority 2016, dated 2020).

In one experiment the target is BRD4 (BDI_K57-E168) (Homo sapiens (Human), UniProt O60885). Kind of experiment: TR-FRET bromodomain binding assay, BRD4 BDI. The following applies: mean Ki, calculated from IC50, probe Kd and probe concentration. On the procedure:
(§1) A time-resolved fluorescence resonance energy transfer (TR-FRET) assay was used to determine the affinities of compounds of the Examples listed in Table 1 for each bromodomain of BRD4. His-tagged first (BDI: amino acids K57-E168) and second (BDII: amino acids E352-M457) bromodomains of BRD4 were expressed and purified. An Alexa647-labeled BET-inhibitor was used as the fluorescent probe in the assay.
(§2) Compound dilution series were prepared in DMSO via an approximately 3-fold serial dilution. Compound dilutions were added directly into white, low-volume assay plates (Perkin Elmer Proxiplate 384 Plus#6008280) using a Labcyte Echo in conjunction with Labcyte Access and Thermo Multidrop CombinL robotics. Compounds were then suspended in eight microliters (μL) of assay buffer (20 mM Sodium Phosphate, pH 6.0, 50 mM NaCl, 1 mM Ethylenediaminetetraacetic acid disodium salt dihydrate, 0.01% Triton X-100, 1 mM DL-Dithiothreitol) containing His-tagged bromodomain, Europium-conjugated anti-His antibody (Invitrogen PV5596) and Alexa-647-conjugated probe.
(§3) The final concentration of 1× assay mixture contained 2% DMSO, 12 nM His tagged BRD4 (BDI_K57-E168) and 100 nM probe or 4 nM His tagged BRD4 (BDII_E352-M457) and 30 nM probe, and 1 nM Europium-conjugated anti-His-tag antibody, and compound concentrations in the range of: 49.02 μM-0.61 nM or 0.98 μM-0.15 nM.
(§4) After a one-hour equilibration at room temperature, TR-FRET ratios were determined using an Envision multilabel plate reader (Ex 340, Em 495/520).
(§5) TR-FRET data were normalized to the means of 24 no-compound controls (“high”) and 8 controls containing 1 μM un-labeled probe (“low”). Percent inhibition was plotted as a function of compound concentration and the data were fit with the 4 parameter logistic equation to obtain IC50s. Inhibition constants (Ki) were calculated from the IC50s, probe Kd and probe concentration.

A further experiment addresses BRD4 (BDII_E352-M457) (Homo sapiens (Human), UniProt O60885). Kind of experiment: TR-FRET bromodomain binding assay, BRD4 BDII. Particulars: mean Ki, calculated from IC50, probe Kd and probe concentration. On the procedure: as §1, §2, §3, §4, §5

Turning to `Cc1cccc(Cl)c1Oc1ncc(C(C)(C)O)cc1-c1cn(C)c(=O)c2[nH]c(C(=O)NC(C)(C)C)cc12` [Example 37, N-tert-butyl-4-[2-(2-chloro-6-methylphenoxy)-5-(2-hydroxypropan-2-yl)pyridin-3-yl]-6-methyl-7-oxo-6,7-dihydro-1H-pyrrolo[2,3-c]pyridine-2-carboxamide], the results for the Ki at BRD4 (BDI_K57-E168) and at BRD4 (BDII_E352-M457) were 195 nM and 3.7 nM, respectively.
With `Cc1cccc(Cl)c1Oc1ncc(C(C)(C)O)cc1-c1cn(C)c(=O)c2[nH]c(C(=O)NC(C)(C)C(F)(F)F)cc12` [Example 38, 4-[2-(2-chloro-6-methylphenoxy)-5-(2-hydroxypropan-2-yl)pyridin-3-yl]-6-methyl-7-oxo-N-(1,1,1-trifluoro-2-methylpropan-2-yl)-6,7-dihydro-1H-pyrrolo[2,3-c]pyridine-2-carboxamide], the Ki at BRD4 (BDI_K57-E168) is 241 nM; at BRD4 (BDII_E352-M457), 5.7 nM.
The matching figures for `Cc1cccc(Cl)c1Oc1ncc(C(C)(C)O)cc1-c1cn(C)c(=O)c2[nH]c(C(=O)NC3(C)CC3(F)F)cc12` (centres unmarked) [Example 39, 4-[2-(2-chloro-6-methylphenoxy)-5-(2-hydroxypropan-2-yl)pyridin-3-yl]-N-(2,2-difluoro-1-methylcyclopropyl)-6-methyl-7-oxo-6,7-dihydro-1H-pyrrolo[2,3-c]pyridine-2-carboxamide]: 640 nM and 11.3 nM.
As for `CCNC(=O)c1cc2c(-c3cc(C(C)(C)O)ccc3Oc3c(C)cc(SC)cc3C)cn(C)c(=O)c2[nH]1` [Example 40, 4-{2-[2,6-dimethyl-4-(methylsulfanyl)phenoxy]-5-(2-hydroxypropan-2-yl)phenyl}-N-ethyl-6-methyl-7-oxo-6,7-dihydro-1H-pyrrolo[2,3-c]pyridine-2-carboxamide], the values for the Ki on BRD4 (BDI_K57-E168) and on BRD4 (BDII_E352-M457) were 773 nM and 2.1 nM, respectively.
The matching figures for `Cc1cccc(Cl)c1Oc1ccc(C(C)(C)O)cc1-c1cn(C)c(=O)c2[nH]c(C(=O)NC(C)(C)C(F)(F)F)cc12` [Example 41, 4-[2-(2-chloro-6-methylphenoxy)-5-(2-hydroxypropan-2-yl)phenyl]-6-methyl-7-oxo-N-(1,1,1-trifluoro-2-methylpropan-2-yl)-6,7-dihydro-1H-pyrrolo[2,3-c]pyridine-2-carboxamide]: 759 nM and 4.8 nM.
The matching figures for `Cc1cccc(Cl)c1Oc1ccc(C(C)(C)O)cc1-c1cn(C)c(=O)c2[nH]c(C(=O)NC3(C)CC3(F)F)cc12` (centres unmarked) [Example 42, 4-[2-(2-chloro-6-methylphenoxy)-5-(2-hydroxypropan-2-yl)phenyl]-N-(2,2-difluoro-1-methylcyclopropyl)-6-methyl-7-oxo-6,7-dihydro-1H-pyrrolo[2,3-c]pyridine-2-carboxamide]: 704 nM and 5.7 nM.
For `CCNC(=O)c1cc2c(-c3cc(C(C)(C)O)cnc3Oc3c(C)cc(F)cc3C)cn(C)c(=O)c2[nH]1` [Example 43, N-ethyl-4-[2-(4-fluoro-2,6-dimethylphenoxy)-5-(2-hydroxypropan-2-yl)pyridin-3-yl]-6-methyl-7-oxo-6,7-dihydro-1H-pyrrolo[2,3-c]pyridine-2-carboxamide] the same measures were 525 nM and 5 nM.
As to `Cc1cc(F)cc(C)c1Oc1ncc(C(C)(C)O)cc1-c1cn(C)c(=O)c2[nH]c(C(=O)NC(C)(C)C)cc12` [Example 44, N-tert-butyl-4-[2-(4-fluoro-2,6-dimethylphenoxy)-5-(2-hydroxypropan-2-yl)pyridin-3-yl]-6-methyl-7-oxo-6,7-dihydro-1H-pyrrolo[2,3-c]pyridine-2-carboxamide], the Ki at BRD4 (BDI_K57-E168) is 323 nM; on BRD4 (BDII_E352-M457) it was 7.3 nM.
Turning to `Cc1cccc(C(F)(F)F)c1Oc1ncc(C(C)(C)O)cc1-c1cn(C)c(=O)c2[nH]c(C(=O)NC(C)(C)C)cc12` [Example 45, N-tert-butyl-4-{5-(2-hydroxypropan-2-yl)-2-[2-methyl-6-(trifluoromethyl)phenoxy]pyridin-3-yl}-6-methyl-7-oxo-6,7-dihydro-1H-pyrrolo[2,3-c]pyridine-2-carboxamide], the figures for the Ki at BRD4 (BDI_K57-E168) and at BRD4 (BDII_E352-M457) were 1080 nM and 12.5 nM, respectively.
For `Cc1cccc(C(F)(F)F)c1Oc1ncc(C(C)(C)O)cc1-c1cn(C)c(=O)c2[nH]c(C(=O)NC(C)(C)C(F)(F)F)cc12` [Example 46, 4-{5-(2-hydroxypropan-2-yl)-2-[2-methyl-6-(trifluoromethyl)phenoxy]pyridin-3-yl}-6-methyl-7-oxo-N-(1,1,1-trifluoro-2-methylpropan-2-yl)-6,7-dihydro-1H-pyrrolo[2,3-c]pyridine-2-carboxamide], the figures for the Ki at BRD4 (BDI_K57-E168) and on BRD4 (BDII_E352-M457) were 2520 nM and 19.5 nM, respectively.
The matching figures for `Cc1cccc(C(F)(F)F)c1Oc1ncc(C(C)(C)O)cc1-c1cn(C)c(=O)c2[nH]c(C(=O)NC3(C)CC3(F)F)cc12` (centres unmarked) [Example 47, N-(2,2-difluoro-1-methylcyclopropyl)-4-{5-(2-hydroxypropan-2-yl)-2-[2-methyl-6-(trifluoromethyl)phenoxy]pyridin-3-yl}-6-methyl-7-oxo-6,7-dihydro-1H-pyrrolo[2,3-c]pyridine-2-carboxamide]: 2060 nM and 24.4 nM.
Consider `CCNC(=O)c1cc2c(-c3cc(C(C)(C)O)cnc3Oc3c(C)cccc3C(F)(F)F)cn(C)c(=O)c2[nH]1` [Example 48, N-ethyl-4-{5-(2-hydroxypropan-2-yl)-2-[2-methyl-6-(trifluoromethyl)phenoxy]pyridin-3-yl}-6-methyl-7-oxo-6,7-dihydro-1H-pyrrolo[2,3-c]pyridine-2-carboxamide], for which the figures for the Ki at BRD4 (BDI_K57-E168) and at BRD4 (BDII_E352-M457) were 1600 nM and 6 nM, respectively.
Turning to `CCNC(=O)c1cc2c(-c3cc(C(C)(C)O)ccc3Oc3c(C)cc(F)cc3Cl)cn(C)c(=O)c2[nH]1` [Example 49, 4-[2-(2-chloro-4-fluoro-6-methylphenoxy)-5-(2-hydroxypropan-2-yl)phenyl]-N-ethyl-6-methyl-7-oxo-6,7-dihydro-1H-pyrrolo[2,3-c]pyridine-2-carboxamide], the Ki on BRD4 (BDI_K57-E168) is 284 nM; on BRD4 (BDII_E352-M457) it was 1 nM.
For `Cc1cc(F)cc(Cl)c1Oc1ncc(C(C)(C)O)cc1-c1cn(C)c(=O)c2[nH]c(C(=O)NC(C)(C)C)cc12` [Example 51, N-tert-butyl-4-[2-(2-chloro-4-fluoro-6-methylphenoxy)-5-(2-hydroxypropan-2-yl)pyridin-3-yl]-6-methyl-7-oxo-6,7-dihydro-1H-pyrrolo[2,3-c]pyridine-2-carboxamide] the same measures were 263 nM and 4.9 nM.
The matching figures for `CCNC(=O)c1cc2c(-c3cc(C(C)(C)O)cnc3Oc3c(C)cc(F)cc3Cl)cn(C)c(=O)c2[nH]1` [Example 52, 4-[2-(2-chloro-4-fluoro-6-methylphenoxy)-5-(2-hydroxypropan-2-yl)pyridin-3-yl]-N-ethyl-6-methyl-7-oxo-6,7-dihydro-1H-pyrrolo[2,3-c]pyridine-2-carboxamide]: 325 nM and 0.9 nM.
For `Cc1cc(F)cc(Cl)c1Oc1ccc(C(C)(C)O)cc1-c1cn(C)c(=O)c2[nH]c(C(=O)NC(C)(C)C)cc12` [Example 53, N-tert-butyl-4-[2-(2-chloro-4-fluoro-6-methylphenoxy)-5-(2-hydroxypropan-2-yl)phenyl]-6-methyl-7-oxo-6,7-dihydro-1H-pyrrolo[2,3-c]pyridine-2-carboxamide] the same measures were 432 nM and 4.6 nM.
Consider `Cc1cccc(C(F)(F)F)c1Oc1ccc(C(C)(C)O)cc1-c1cn(C)c(=O)c2[nH]c(C(=O)NC(C)(C)C)cc12` [Example 54, N-tert-butyl-4-{5-(2-hydroxypropan-2-yl)-2-[2-methyl-6-(trifluoromethyl)phenoxy]phenyl}-6-methyl-7-oxo-6,7-dihydro-1H-pyrrolo[2,3-c]pyridine-2-carboxamide], for which the results for the Ki on BRD4 (BDI_K57-E168) and at BRD4 (BDII_E352-M457) were 4520 nM and 6 nM, respectively.
With `Cc1cc(F)cc(C)c1Oc1ccc(C(C)(C)O)cc1-c1cn(C)c(=O)c2[nH]c(C(=O)NC(C)(C)C(F)(F)F)cc12` [Example 55, 4-[2-(4-fluoro-2,6-dimethylphenoxy)-5-(2-hydroxypropan-2-yl)phenyl]-6-methyl-7-oxo-N-(1,1,1-trifluoro-2-methylpropan-2-yl)-6,7-dihydro-1H-pyrrolo[2,3-c]pyridine-2-carboxamide], the figures for the Ki at BRD4 (BDI_K57-E168) and on BRD4 (BDII_E352-M457) were 4690 nM and 6.9 nM, respectively.
For `Cc1cc(F)cc(C)c1Oc1ncc(C(C)(C)O)cc1-c1cn(C)c(=O)c2[nH]c(C(=O)NC(C)(C)C(F)(F)F)cc12` [Example 56, 4-[2-(4-fluoro-2,6-dimethylphenoxy)-5-(2-hydroxypropan-2-yl)pyridin-3-yl]-6-methyl-7-oxo-N-(1,1,1-trifluoro-2-methylpropan-2-yl)-6,7-dihydro-1H-pyrrolo[2,3-c]pyridine-2-carboxamide] the same measures were 917 nM and 4.7 nM.

Broadly, the Ki is a dissociation constant, usually derived from enzyme kinetics or from competition with a known ligand.
